System: tqq cluster of S. suis
Assay: High-throughput elicitor screening
Format: cell-based, Streptococcus suis
Conditions: for elicitation of threoglucin E: 2D slice from the 3D map, abundance of threoglucin E across all 442 elicitors, Figure 2B; for elicited features in HiTES 3D difference map: ~442-member human endogenous metabolite library, UPLC-Qtof-MS, Figure 2A

## c1cncc([C@@H]2CCCCN2)c1 [anabasine]
  elicitation of threoglucin E: best elicitors
  elicited features in HiTES 3D difference map: elicited peaks

## O=C(O)c1cccnc1 [niacin]
  elicitation of threoglucin E: best elicitors
  elicited features in HiTES 3D difference map: elicited peaks

## NC(=O)c1cccnc1 [nicotinamide]
  elicited features in HiTES 3D difference map: elicited peaks

From publication PMC10171913 (Journal of the American Chemical Society, 2022)
